Tests used:
Male beagle dogs = settings: dog, in vivo
[1] = dog; intrathecal; cited from earlier work
[2] = dog, in vivo

## CSCC[C@@H]1NC(=O)[C@H](CC(C)C)NC(=O)[C@H](CCCNC(=N)N)NC(=O)[C@H](CO)NC(=O)[C@@H]2CSSC[C@@H]3NC(=O)[C@H](CO)NC(=O)CNC(=O)[C@H]([C@@H](C)O)NC(=O)[C@H](CSSC[C@H](N)C(=O)N[C@@H](CCCCN)C(=O)NCC(=O)N[C@@H](CCCCN)C(=O)NCC(=O)N[C@@H](C)C(=O)N[C@@H](CCCCN)C(=O)N2)NC(=O)[C@H](CSSC[C@@H](C(N)=O)NC(=O)[C@H](CCCCN)NC(=O)CNC(=O)[C@H](CO)NC(=O)[C@H](CCCNC(=N)N)NC3=O)NC(=O)[C@H](CC(=O)O)NC(=O)[C@H](Cc2ccc(O)cc2)NC1=O [Ziconotide]
Male beagle dogs
  Decreased arousal and activity (remained responsive), dogs affected: All 5 dogs

## O=C(c1ccccc1)c1ccc2n1CCC2C(=O)O (stereo not drawn) [ketorolac]
[1]
  T1/2 (CSF elimination) in this model: 54 min

## inulin [[^3H]Inulin]
[2]
  T1/2 α in LCSF: 9.6 min
